Measurements: the METLIN SMRT retention time set (Domingo-Almenara et al. 2019)

Assay: gradient 5% acetonitrile 3 min, to 50% in 2 min, to 85% in 15 min, held 3 min, 100 µL/min
Details: column: Zorbax Extend-C18 2.1 x 50 mm; eluents: water / acetonitrile, 0.1% formic acid
Summary of the method: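 Each retention time is based on an adduct peak selected computationally and verified by manual inspection. Measurements used HPLC–quadrupole time-of-flight mass spectrometry in positive and negative ionization mode on mixtures of ~100 pure standards. Chromatography ran on a Zorbax Extend-C18 column (2.1 × 50 mm, 1.8 μm) at 100 μL/min with water and acetonitrile, each containing 0.1% formic acid, and dead and dwell volumes of 40 μL and 900 μL.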

RP-LC retention time	Structure (SMILES)
1000 s	COc1cccc(-n2c(=O)c3sccc3n(Cc3nc(-c4ccccc4C)no3)c2=O)c1
1230 s	Cc1ccc(-c2noc(C3CCCN3S(=O)(=O)c3ccc(Br)cc3)n2)cc1 (stereo unspecified)
1040 s	CCc1ccccc1NC(=O)Cn1nc2cc(C)nc(Nc3ccc(F)cc3)n2c1=O
721 s	CCn1ccc2c(cc(C(=O)Nc3ccc4c(c3)OCCO4)n2C)c1=O
637 s	CN(C)C(=O)c1ccc2c(c1)nc(CN(C)C(=O)Nc1ccc(Br)cc1F)n2C
649 s	c1ccc2c(c1)CCN(c1nccnc1OC1CCNC1)C2 (stereo unspecified)
723 s	CN(C)c1cccc(C(=O)NCC2CCN(C(=O)Oc3ccccc3)CC2)c1
827 s	Cn1c(=O)c(N2CCCC(C(=O)NCCc3ccco3)C2)nc2cccnc21 (stereo unspecified)
650 s	O=C(NC1CC1)c1c2c(nc3ccc(F)cc13)CCC2
613 s	CN1C(=O)COc2cc(-c3noc(C(=O)NCc4cccnc4)n3)ccc21
964 s	COc1ccccc1NC(=O)c1cc(=O)n2c(nc3ccccc32)s1
709 s	CCc1nncn1C1CCN(S(=O)(=O)c2cc(Cl)ccc2OC)CC1
603 s	Cc1cc(=O)n(CC(=O)NCc2ccccc2Cl)c(N)n1
840 s	Cc1ccc(NS(=O)(=O)c2cc3c4c(c2)CCC(=O)N4CCC3)c(C)c1
1000 s	CCOC(=O)c1oc2ccc(S(=O)(=O)N3CCC(c4noc(C5CC5)n4)C3)cc2c1C (stereo unspecified)
805 s	O=C(NC1CC1)c1ccccc1OCC1CCN(C(=O)c2ccc(F)cc2)CC1
621 s	CCC(C)NC(=O)CCc1ccc2nc(-c3ccccc3)[nH]c2c1 (stereo unspecified)
976 s	O=C(NC1CCCCC1)C1CCCN(c2nccn3nc(-c4ccccc4Cl)cc23)C1 (stereo unspecified)
795 s	O=C(C1CCN(c2ncnc3c2oc2ccccc23)CC1)N1CCN(c2ccccc2)CC1
1170 s	COc1nc2ccccc2nc1N1CCCC(C(=O)Nc2cc(F)cc(F)c2)C1 (stereo unspecified)
644 s	CC(=O)c1ccc(NC(=O)c2cc(C)nc3ccccc23)cc1
741 s	O=C(Cc1cccc(Cl)c1)NC1CCN(c2cc(-c3ccc(F)cc3)[nH]n2)C1 (stereo unspecified)
1080 s	COc1ccccc1-c1c(C(F)(F)F)oc2cc(OC(=O)C3CC3)ccc2c1=O
814 s	CCc1nc(OCC(=O)NCc2ccc(SC)cc2)c2ccccc2n1
829 s	Cc1cccc(N2CCN(C(=O)c3cc(C)n4nccc4n3)CC2)c1

RP-LC retention time	Structure (SMILES)
571 s	COc1ccc2[nH]c(=O)c(CCC(=O)NCc3cccnc3)cc2c1
652 s	Cc1ccc(C)c(Sc2cc(N3CCC(C(=O)N4CCC(C(N)=O)CC4)CC3)ncn2)c1
655 s	O=C(Cn1cnc2nc(N3CCC(C(=O)NC4CC4)CC3)sc2c1=O)NCc1ccc(F)cc1
963 s	CCOc1ccc(-n2c(N3CCCC3)nc3cc(C(=O)OC)ccc3c2=O)cc1
661 s	O=C(c1cnccn1)N1CCCCC1c1nc(-c2ccncc2)no1 (stereo unspecified)
593 s	Nc1ccc2ncnc(N3CCCCC3)c2c1
754 s	COc1ccc(S(=O)(=O)N2CCN(c3cc(C)nc(N4CCCC4)n3)CC2)cc1Cl
994 s	CCCn1nnc2cc(-c3noc(C4CC(=O)N(c5cccc(Cl)c5)C4)n3)ccc21 (stereo unspecified)
648 s	O=C(Nc1ccc2c(c1)OCCO2)N1CCC(n2c(-c3ccoc3)nc3cccnc32)C1 (stereo unspecified)
807 s	O=S(=O)(c1ccccc1F)N1CCN(Cc2cccc(F)c2)C2(CCOCC2)C1
1060 s	COC(=O)c1ccccc1NC(=O)c1ccc(F)cc1
886 s	CCOC(=O)c1nc(Nc2ccc(OC)c(Cl)c2)c2ccccc2n1
1090 s	Cc1ccc(N2CC(c3noc(-c4cccc(N(C)C)c4)n3)CC2=O)cc1 (stereo unspecified)
1010 s	O=C(NCc1ccc(F)cc1)N1CCN(c2nc3ccccc3nc2C(F)(F)F)CC1
793 s	Cc1nnc(-c2ccc3ccn(CC(=O)NCC(C)c4ccccc4)c3c2)o1 (stereo unspecified)
803 s	Cc1ccccc1NC(=O)C1CC(=O)N(c2ccc3c(c2)CCN3C(=O)C2CCC2)C1 (stereo unspecified)
608 s	CCOC(=O)CNC(=O)Cn1c(-c2cccnc2)nc2ccccc21
709 s	CCNc1nc(C)cc(N2CCN(C(=O)Nc3cc(Cl)ccc3OC)CC2)n1
937 s	O=C(N[C@H]1C[C@@H]2C[C@H]1CN2C(=O)Nc1ccc2c(c1)OCCO2)c1ccccc1
1000 s	CCC(c1cccs1)N1C(=O)[C@H]2CN(S(=O)(=O)c3ccc(F)cc3F)C[C@H]2C1=O (stereo partly specified)
689 s	Cc1ccc(C)c(N2CCN(C(=O)c3cn4c(n3)CCCC4)CC2)c1
922 s	O=C(NCc1ccccc1C(F)(F)F)c1cn2nc(Cl)ccc2n1
754 s	Cc1ccc(C)c(NC(=O)N2CCC(N3CCN(Cc4ccc(F)cc4)C(=O)C3=O)CC2)c1
902 s	COc1ccc(Cl)cc1NC(=O)Cc1csc2nc(-c3ccccc3)cn12
845 s	CCOc1ccc(-c2[nH]ncc2CNS(=O)(=O)Cc2cc(F)cc(F)c2)cc1

Further lines, the molecule ahead of its results:

Structure (SMILES)	RP-LC retention time
CCOc1ccccc1-c1noc(Cn2c(=O)n(Cc3ccccc3)c(=O)c3sccc32)n1	1090 s
COCCNC(=O)Cn1nc(C)c2c(C)n(-c3ccccc3)nc2c1=O	649 s
CCOc1ccc(CNC(=O)c2cn3cc(Cl)ccc3n2)cc1	863 s
O=C(CS(=O)(=O)Cc1ccccc1)Nc1nc(-c2ccccc2)cs1	956 s
CC(=O)CC(c1ccccc1)C1C(=O)Oc2ccccc2C1=O (stereo unspecified)	1000 s
CC(C)NC(=O)CN1CCN(Cc2nc(-c3ccc(N4CCCCC4)nc3)no2)CC1	594 s
Cc1ccc(Cn2nc3ccc(S(=O)(=O)N4CCCCC4)cn3c2=O)cc1C	1020 s
CCCC(=O)n1nc(C)c(S(=O)(=O)N2CCOCC2)c1C	954 s
CNC(=O)c1ccsc1NC(=O)CN1C(=O)c2ccccc2C1=O	701 s
CC(C)c1nnc(-c2ccc(S(=O)(=O)N3CCCC3)o2)o1	815 s
CC(C)C(NC(=O)NCc1ccccc1)C(=O)N1CCc2ccccc21 (stereo unspecified)	896 s
Cc1ccccc1-c1nnc(CSc2nnc(NC(=O)c3cccs3)s2)o1	908 s
COc1cc2c(c(OC)c1O)C(=O)CO2	642 s
C=CCNC(=O)c1cn(-c2cc(-c3nc(CC)no3)ccn2)cn1	646 s
CCc1nnc(-c2cc(C)n(CC(=O)Nc3cc(C)ccc3C)c2C)o1	789 s
COC(=O)c1ccc(C2CC(=O)NC3=C2C(=O)CCC3)cc1 (stereo unspecified)	653 s
CN(CC1CCCO1)c1nc(-c2ccc([N+](=O)[O-])cc2)cs1 (stereo unspecified)	1110 s
COc1cccc(-c2nc(-c3ccc(-n4ccnc4)nc3)no2)c1	736 s
Cc1cnc(C(=O)N2CCC3(CCC3O)CC2)cn1 (stereo unspecified)	605 s
O=C1CCCN1CCCN(CC(=O)N1CCNCC1)C(=O)c1ccc(Cl)cc1	586 s
CCn1cc(S(=O)(=O)Nc2cccc(C)c2C)c2cccnc21	868 s

Structure (SMILES)	RP-LC retention time
COc1cc(CNC(=O)CCCC/C=C\C(C)C)ccc1O	947 s
Cc1ccc(-c2csc(NC(=O)CCCOc3ccc(Cl)cc3)n2)cc1	979 s
Cc1scc(CN2CCN(c3ccccn3)CC2)c1C	578 s
CCOc1cccc2sc(N(CCCN(C)C)C(=O)CN3C(=O)CCC3=O)nc12	559 s
CCn1c(N2CCC(C(=O)N3CCN(c4ccccn4)CC3)CC2)cc(=O)n(C)c1=O	584 s
CCn1c(=O)oc2cc(-c3noc(-c4cc(SC)ccc4Cl)n3)ccc21	1270 s
O=C(c1cn(-c2ccc(S(=O)(=O)N3CCOCC3)cc2)cn1)N1CCN(c2ncccn2)CC1	666 s
CCC1c2nccn2CCCN1C(=O)c1ccc2c(c1)OCO2 (stereo unspecified)	593 s
O=C(CC1CCN(S(=O)(=O)c2ccc(Cl)s2)CC1)N1CCCCCC1	1000 s
O=C(Cc1cccs1)Nc1cccc(OCc2nnc(-c3ccc(Cl)cc3)o2)c1	1010 s
Cc1ccc(-c2[nH]ncc2CN2CCC3(CCC3O)CC2)cc1 (stereo unspecified)	577 s
CS(=O)(=O)N1CCc2cc(C(=O)N3CCC(C(N)=O)CC3)ccc21	583 s
CCOC(=O)CNC(=O)NCc1cccn1Cc1cccc(C)c1	834 s
Cc1nc2cc(-c3noc(Cc4ccc(Cl)cc4)n3)ccc2o1	1070 s
CCc1cccc(NS(=O)(=O)c2c[nH]c3ncccc23)c1	762 s
O=C(CN1C(=O)COc2ccccc2C1=O)c1cccc([N+](=O)[O-])c1	863 s
Cc1ccc(-c2cc3n(n2)C(NCCc2cccs2)CNC3=O)cc1 (stereo unspecified)	739 s
O=C(CCc1c(-c2ccc(Br)cc2)nc2ccccn12)NCCCc1ccccc1	722 s
CCc1ccc(-c2noc(Cn3c(=O)n(Cc4cccc(OC)c4)c(=O)c4sccc43)n2)cc1	1170 s
COc1ccc(-c2nnc(Cc3nc(-c4ccc5c(c4)OCO5)no3)o2)cc1	916 s
